Where two headings read alike, the source gives them in different places.
What was measured:
CMV-polymerase = CMV-polymerase (Human cytomegalovirus (strain AD169) (HHV-5) (Human herpesvirus 5), UniProt P08546); experiment: biochemical
HSV-polymerase = HSV-polymerase (Human herpesvirus 1 (strain 17) (HHV-1) (Human herpes simplex virus 1), UniProt P04293); experiment: biochemical
CMV = experiment: microbe, parasite or virus in culture; type: cell-based; details: Human betaherpesvirus 5, 72 h, read-out: CMV-Luc Cellular EC50, NN-NHDF cells, MOI 1, 72 hrs
[1] = CMV-polymerase Biochemical IC50
[2] = read-out: CMV-polymerase Biochemical IC50

SMILES	IC50 (CMV-polymerase; [1]) [nM]	IC50 (HSV-polymerase) [nM]	IC50 (CMV-polymerase; [2]) [nM]	EC50 (CMV) [nM]
CC1Cc2c(C(=O)NCc3ccc(C#N)cc3)nn(C)c2C(=O)N1CC1(S(C)(=O)=O)CC1 (single isomer, unassigned) [Example 42, (R)- or (S)-N-(4-cyanobenzyl)-1,5-dimethyl-6-((1-(methylsulfonyl)cyclopropyl)methyl)-7-oxo-4,5,6,7-tetrahydro-1H-pyrazolo[3,4-c]pyridine-3-carboxamide]	149	2000		
Cn1nc(C(=O)NCc2ccc(C#N)cc2)c2c1C(=O)N(CC1(S(=O)(=O)C(C)(C)COC(F)CO)CC1)CC2 (single isomer, unassigned) [Example 81, (R)- or (S)-N-(4-cyanobenzyl)-6-((1-((1-(1-fluoro-2-hydroxyethoxy)-2-methylpropan-2-yl)sulfonyl)cyclopropyl)methyl)-1-methyl-7-oxo-4,5,6,7-tetrahydro-1H-pyrazolo[3,4-c]pyridine-3-carboxamide]	3	46		
Cn1nc(C(=O)NCc2ccc(C#N)cc2)c2c1C(=O)N(CC1(S(=O)(=O)C(C)(C)COC(F)CN)CC1)CC2 (single isomer, unassigned) [Example 82, (R)- or (S)-6-((1-((1-(2-amino-1-fluoroethoxy)-2-methylpropan-2-yl)sulfonyl)cyclopropyl)methyl)-N-(4-cyanobenzyl)-1-methyl-7-oxo-4,5,6,7-tetrahydro-1H-pyrazolo[3,4-c]pyridine-3-carboxamide]		82	2	
Cn1nc(C(=O)NCc2ccc(C#N)cc2)c2c1C(=O)N(CC1(S(=O)(=O)C3(C(O)CO)CC3)CC1)CC2 (single isomer, unassigned) [Example 195, (R)- or (S)-N-(4-Cyanobenzyl)-6-((1-((1-(1,2-dihydroxyethyl)cyclopropyl)sulfonyl)cyclopropyl)methyl)-1-methyl-7-oxo-4,5,6,7-tetrahydro-1H-pyrazolo[3,4-c]pyridine-3-carboxamide]		23		
O=C(NCc1ccc(Cl)cc1)c1nn(CCO)c2c1CCN(CC1(S(=O)(=O)C3CC3)CC1)C2=O [Example 218, N-(4-Chlorobenzyl)-6-((1-(cyclopropylsulfonyl)cyclopropyl)methyl)-1-(2-hydroxyethyl)-7-oxo-4,5,6,7-tetrahydro-1H-pyrazolo[3,4-c]pyridine-3-carboxamide]			6	42
CS(=O)(=O)C1(CN2CCc3c(C(=O)NCc4ccc(Cl)cc4)nn(CCO)c3C2=O)CC1 [Example 219, N-(4-Chlorobenzyl)-1-(2-hydroxyethyl)-6-((1-(methylsulfonyl)cyclopropyl)methyl)-7-oxo-4,5,6,7-tetrahydro-1H-pyrazolo[3,4-c]pyridine-3-carboxamide]			30	207
CC(C)(CO)S(=O)(=O)C1(CN2CCc3c(C(=O)NCc4ccc(C#N)cc4)nn(CCO)c3C2=O)CC1 [Example 220, N-(4-Cyanobenzyl)-6-((1-((1-hydroxy-2-methylpropan-2-yl)sulfonyl)cyclopropyl)methyl)-1-(2-hydroxyethyl)-7-oxo-4,5,6,7-tetrahydro-1H-pyrazolo[3,4-c]pyridine-3-carboxamide]			1	49
CC1(S(=O)(=O)C2(CN3CCc4c(C(=O)NCc5ccc(Cl)cc5)nn(CCOCCO)c4C3=O)CC2)CC1 [Example 222, N-(4-Chlorobenzyl)-1-(2-(2-hydroxyethoxy)ethyl)-6-((1-((1-methylcyclopropyl)sulfonyl)cyclopropyl)methyl)-7-oxo-4,5,6,7-tetrahydro-1H-pyrazolo[3,4-c]pyridine-3-carboxamide]	3			33
CC1(S(=O)(=O)C2(CN3CCc4c(C(=O)NCc5ccc(Cl)cc5)nn(CCOCCN)c4C3=O)CC2)CC1 [Example 223, 1-(2-(2-Aminoethoxy)ethyl)-N-(4-chlorobenzyl)-6-((1-((1-methylcyclopropyl)sulfonyl)cyclopropyl)methyl)-7-oxo-4,5,6,7-tetrahydro-1H-pyrazolo[3,4-c]pyridine-3-carboxamide]	5			49
CCC(=O)Cn1nc(C(=O)NCc2ccc(C#N)cc2)c2c1C(=O)N(CC1(S(=O)(=O)C3CC3)CC1)CC2 [Example 227, N-(4-Cyanobenzyl)-6-((1-(cyclopropylsulfonyl)cyclopropyl)methyl)-7-oxo-1-(2-oxobutyl)-4,5,6,7-tetrahydro-1H-pyrazolo[3,4-c]pyridine-3-carboxamide]	1			28
N#Cc1ccc(CNC(=O)c2nn(CC3(O)CC3)c3c2CCN(CC2(S(=O)(=O)C4CC4)CC2)C3=O)cc1 [Example 228, N-(4-Cyanobenzyl)-6-((1-(cyclopropylsulfonyl)cyclopropyl)methyl)-1-((1-hydroxycyclopropyl)methyl)-7-oxo-4,5,6,7-tetrahydro-1H-pyrazolo[3,4-c]pyridine-3-carboxamide]	2			51
CC(C)(O)Cn1nc(C(=O)NCc2ccc(Cl)cc2)c2c1C(=O)N(CC1(S(=O)(=O)C3CC3)CC1)CC2 [Example 229, N-(4-Chlorobenzyl)-6-((1-(cyclopropylsulfonyl)cyclopropyl)methyl)-1-(2-hydroxy-2-methylpropyl)-7-oxo-4,5,6,7-tetrahydro-1H-pyrazolo[3,4-c]pyridine-3-carboxamide]	1			20
CC(C)(O)Cn1nc(C(=O)NCc2ccc(C#N)cc2)c2c1C(=O)N(CC1(S(=O)(=O)C3CC3)CC1)CC2 [Example 230, N-(4-Cyanobenzyl)-6-((1-(cyclopropylsulfonyl)cyclopropyl)methyl)-1-(2-hydroxy-2-methylpropyl)-7-oxo-4,5,6,7-tetrahydro-1H-pyrazolo[3,4-c]pyridine-3-carboxamide]			1	31
CC(C)(O)Cn1nc(C(=O)NCc2ccc(Cl)cc2)c2c1C(=O)N(CC1(S(C)(=O)=O)CC1)CC2 [Example 231, N-(4-Chlorobenzyl)-1-(2-hydroxy-2-methylpropyl)-6-((1-(methylsulfonyl)cyclopropyl)methyl)-7-oxo-4,5,6,7-tetrahydro-1H-pyrazolo[3,4-c]pyridine-3-carboxamide]			7	88
CC(C)(O)Cn1nc(C(=O)NCc2ccc(C#N)cc2)c2c1C(=O)N(CC1(S(C)(=O)=O)CC1)CC2 [Example 232, N-(4-Cyanobenzyl)-1-(2-hydroxy-2-methylpropyl)-6-((1-(methylsulfonyl)cyclopropyl)methyl)-7-oxo-4,5,6,7-tetrahydro-1H-pyrazolo[3,4-c]pyridine-3-carboxamide]			6	160
CCS(=O)(=O)C1(CN2CCc3c(C(=O)NCc4ccc(C#N)cc4)nn(CC(C)(C)O)c3C2=O)CC1 [Example 233, N-(4-Cyanobenzyl)-6-((1-(ethylsulfonyl)cyclopropyl)methyl)-1-(2-hydroxy-2-methylpropyl)-7-oxo-4,5,6,7-tetrahydro-1H-pyrazolo[3,4-c]pyridine-3-carboxamide]			2	96
CC(C)(O)Cn1nc(C(=O)NCc2ccc(C#N)cc2)c2c1C(=O)N(CC1(S(=O)(=O)C(C)(C)CO)CC1)CC2 [Example 235, N-(4-Cyanobenzyl)-6-((1-((1-hydroxy-2-methylpropan-2-yl)sulfonyl)cyclopropyl)methyl)-1-(2-hydroxy-2-methylpropyl)-7-oxo-4,5,6,7-tetrahydro-1H-pyrazolo[3,4-c]pyridine-3-carboxamide]			1	31
N#Cc1ccc(CNC(=O)c2nn(CCCO)c3c2CCN(CC2(S(=O)(=O)C4CC4)CC2)C3=O)cc1 [Example 236, N-(4-Cyanobenzyl)-6-((1-(cyclopropylsulfonyl)cyclopropyl)methyl)-1-(3-hydroxypropyl)-7-oxo-4,5,6,7-tetrahydro-1H-pyrazolo[3,4-c]pyridine-3-carboxamide]			4	77
CC1(S(=O)(=O)C2(CN3CCc4c(C(=O)NCc5ccc(C#N)cc5)nn(CCCO)c4C3=O)CC2)CC1 [Example 237, N-(4-Cyanobenzyl)-1-(3-hydroxypropyl)-6-((1-((1-methylcyclopropyl)sulfonyl)cyclopropyl)methyl)-7-oxo-4,5,6,7-tetrahydro-1H-pyrazolo[3,4-c]pyridine-3-carboxamide]			2	38
CC(C)(CO)S(=O)(=O)C1(CN2CCc3c(C(=O)NCc4ccc(C#N)cc4)nn(CCOCCBr)c3C2=O)CC1 [Example 238, 1-(2-(2-bromoethoxy)ethyl)-N-(4-cyanobenzyl)-6-((1-((1-hydroxy-2-methylpropan-2-yl)sulfonyl)cyclopropyl)methyl)-7-oxo-4,5,6,7-tetrahydro-1H-pyrazolo[3,4-c]pyridine-3-carboxamide]			1	16
CC1(C)COCCOCCn2nc(C(=O)NCc3ccc(C#N)cc3)c3c2C(=O)N(CC3)CC2(CC2)S1(=O)=O [Example 239, Ethylene glycol macrocycle N-(4-cyanobenzyl)carboxamide]	1			23
CC1(C)COCCOCCn2nc(C(=O)NCc3ccc(Cl)cc3)c3c2C(=O)N(CC3)CC2(CC2)S1(=O)=O [Example 240, Ethylene glycol macrocycle N-(4-chlorobenzyl)carboxamide]	1			43
CC1(C)C(=O)NCCOCCn2nc(C(=O)NCc3ccc(C#N)cc3)c3c2C(=O)N(CC3)CC2(CC2)S1(=O)=O [Example 241, Lactam macrocycle N-(4-cyanobenzyl)carboxamide]	13			467
CC1(C)CNCCOCCn2nc(C(=O)NCc3ccc(C#N)cc3)c3c2C(=O)N(CC3)CC2(CC2)S1(=O)=O [Example 242, amine macrocycle N-(4-cyanobenzyl)carboxamide]	6			101

— US12338220B2, “Antiviral pyrazolopiridinone compounds” (Novartis AG, priority 2019, dated 2025)
